The source of these data is patent publication US20260240888A1, “METHODS AND PHARMACEUTICAL COMPOSITIONS FOR TREATING AGE-RELATED DISEASES” (Neurxstem, priority 2023, published 2026).

For data set [1] the following is noted: cited from earlier work.
The test system of another data set is PG-NNOP neural organoids. As to the kind of experiment: Gene expression (Ampliseq transcriptomics) in PG-NNOP neural organoids treated with drug. The data set is classed as cell-based, human. An excerpt: Furthermore, in one embodiment RNA from neural organoids for Alzheimer's disease, are converted to DNA libraries and then the representative DNA libraries are sequenced using exon-specific primers for 20,814 genes using the AmpliSeq™ technique available commercially from ThermoFisher. Reads in counts per […] (cpm)<1 are considered background noise. All cpm data are normalized data and the reads are a direct representation of the abundance of the RNA for each gene. In another informative embodiment, RNA from neural organoids for Progeroid syndromes were converted to DNA libraries and then sequenced according to this protocol.
Neural Organoids derived from induced pluripotent stem cells derived from adult skin cells of AD, ADRD, MED, or Hutchinson Gilford progeria (PG) patients were grown in vitro for […] as previous described in U.S. Pat. No. 11,435,890, incorporated by reference in its entirety herein. Transcriptomic data from these neural organoids were obtained. Differences in expression of 20,814 genes expressed in the human genome were determined between these neural organoids and those from neural organoids from a normal individual human (an individual not having/diagnosed with AD, ADRD, MED, or Progeroid syndromes). Detailed data analysis using Gene Card and Pubmed data bases were performed. […] These genes comprise a suite of biomarkers for Alzheimer's disease.
Thus, given the overlap in transcriptomic profile of AD and PG, experiments were set out to test the effect of targeting this receptor on PG-NNOP. FAAH inhibitor PF-3845, which is known to raise endogenous levels of endocannabinoid anandamide receptor agonist anandamide and increase endocannabinoid anandamide receptor activity, was tested for effects on gene expression dysregulation in PG-NNOP platform cells as set forth herein (Table 7). […] As the log 2 fold numbers reveal, the direction of the change in gene expression was completely reversed in some biomarkers by PF-3845, or the change was reduced by PF-3845. Thus, PF-3845 was capable of reverting the biomarkers of PG to normalcy.
Expression of differentially expressed genes in PG-NNOP neural organoids compared to Normal-NNOP in culture for 12 weeks is shown, as well as expression of differentially expressed genes in PG-NNOP neural organoids with PF-3845 treatment compared to PG-NNOP without drug treatment in culture for 12 weeks. […] PG-NNOP neural organoids were incubated with vehicle (0.1% DMSO; control) or PF-3845 dissolved in DMSO at 10microM for 4 days and harvested for RNA extraction and gene expression analysis by Ampliseq™ (Thermofisher). Log 2 fold change with a positive value indicates a decrease in expression of a PG-NNOP gene when compared to Normal-NNOP or a PG-NNOP gene with FAAH-I compared to PG-NNOP without the drug treatment, and with a negative number indicates an increase in gene expression.
Expression of differentially expressed genes in PG-NNOP neural organoids compared to Normal-NNOP in culture for 12 weeks and expression of differentially expressed genes in PG-NNOP neural organoids with metformin treatment compared to PG-NNOP without drug treatment in culture for 12 weeks is shown. […] PG-NNOP neural organoids were incubated with vehicle (HBBS; control) or metformin dissolved in HBBS at 0.28 mg/ml for 4 days and harvested for RNA extraction and gene expression analysis by Ampliseq™ (Thermofisher). Log 2 fold change with a positive value indicates a decrease in expression of a PG-NNOP gene when compared to Normal-NNOP or a PG-NNOP gene with Metformin compared to PG-NNOP without the drug treatment, and with a negative number indicates an increase in gene expression.
Expression of differentially expressed genes in PG-NNOP neural organoids compared to Normal-NNOP in culture for 12 weeks and expression of differentially expressed genes in PG-NNOP neural organoids with rapamycin treatment compared to PG-NNOP without drug treatment in culture for 12 weeks is shown. […]

For data set [2] the following is noted: cited from earlier work. This is another data set of the same source.
The test system of data set [3] is AD-NNOP-ApoE neural organoids. As to the kind of experiment: Gene expression (Ampliseq transcriptomics) in AD-NNOP-ApoE neural organoids treated with CGS-21680. The data set is classed as cell-based, human.
Description: Reads in counts per minute (cpm)<1 are considered background noise. All cpm data are normalized data and the reads are a direct representation of the abundance of the RNA for each gene.
Expression of differentially expressed genes in PG-NNOP neural organoids compared to Normal-NNOP in culture for 12 weeks.
Where [4] appears, read: 0.28 mg/ml, 4 days, vs PG-NNOP without drug, positive = decrease in expression.
Where [5] appears, read: 50 nM, 4 days, vs PG-NNOP without drug, positive = decrease in expression.
The mark [6] stands for this setting: 10microM, 4 days, vs PG-NNOP without drug, positive = decrease in expression.

Where a name gives a salt, the structure may show the parent alone.

Take `COc1ccc(C2CNC(=O)C2)cc1OC1CCCC1` (stereo not drawn) [Rolipram]: in data set [1], the IC50 (usually the concentration needed to halve the response being measured) was 800 nM.
For `CN(C)C(=N)NC(=N)N` [Metformin], the “effect on dysregulated gene expression in PG-NNOP” value (“effect … in PG-NNOP” for short) in the data set on PG-NNOP neural organoids is reported as “shifted the gene expression towards normalcy”. Besides, in the data set on PG-NNOP neural organoids (setting [4]), the “Log2 Fold Change of CDK1 gene expression” value was found to be 0.52, the “Log2 Fold Change of CDKN1A gene expression” value is given as −0.35, the “Log2 Fold Change of DNAJC1 gene expression” value is −0.26 and the “Log2 Fold Change of ID2 gene expression” value turned out to be 0.86. In the data set on PG-NNOP neural organoids (setting [4]), the “Log2 Fold Change of LMNB2 gene expression” value was −0.42, the “Log2 Fold Change of MT2A gene expression” value was 2.06, the “Log2 Fold Change of POGZ gene expression” value is 0.36 and the “Log2 Fold Change of POLE3 gene expression” value is listed as −0.25. For the same molecule, in the data set on PG-NNOP neural organoids (setting [4]), the “Log2 Fold Change of SLC35F1 gene expression” value is −0.47, the “Log2 Fold Change of USP31 gene expression” value was found to be 0.67, the “Log2 Fold Change of VCP gene expression” value was 0.33 and the “Log2 Fold Change of WRN gene expression” value stood at 0.71.
Consider `CCNC(=O)[C@H]1O[C@@H](n2cnc3c(N)nc(C#CC[C@H]4CC[C@H](C(=O)OC)CC4)nc32)[C@H](O)[C@@H]1O` [Apadenoson, methyl (1R,4r)-4-(3-(6-amino-9-((2R,3R,4S,5S)-5-(ethylcarbamoyl)-3,4-dihydroxytetrahydrofuran-2-yl)-9H-purin-2-yl)prop-2-yn-1-yl)cyclohexane-1-carboxylate], for which the “solubility in DMSO” value in data set [2] (DMSO) is recorded as “Soluble in DMSO”.
For the molecule `CO[C@H]1C[C@@H]2CC[C@@H](C)[C@@](O)(O2)C(=O)C(=O)N2CCCC[C@H]2C(=O)O[C@H]([C@H](C)C[C@@H]2CC[C@@H](O)[C@H](OC)C2)CC(=O)[C@H](C)/C=C(\C)[C@@H](O)[C@@H](OC)C(=O)[C@H](C)C[C@H](C)/C=C/C=C/C=C/1C` [Rapamycin], the “effect … in PG-NNOP” value in the data set with PG-NNOP neural organoids is “shifted the gene expression towards normalcy”. For the same molecule, in the data set on PG-NNOP neural organoids (setting [5]), the “Log2 Fold Change of CDKN1A gene expression” value was determined as 1.21, the “Log2 Fold Change of IDI1 gene expression” value is reported as 1.48, the “Log2 Fold Change of LMNB2 gene expression” value is −0.96 and the “Log2 Fold Change of MT2A gene expression” value came to 3.23. Further, in the data set on PG-NNOP neural organoids (setting [5]), the “Log2 Fold Change of POLE3 gene expression” value is on record as 0.75, the “Log2 Fold Change of SLC35F1 gene expression” value is reported as −0.83, the “Log2 Fold Change of SLC38A1 gene expression” value is listed as −1.15 and the “Log2 Fold Change of USP36 gene expression” value is reported as 0.99.
In the case of `O=C(Nc1cccnc1)N1CCC(Cc2cccc(Oc3ccc(C(F)(F)F)cn3)c2)CC1` [PF-3845, N-3-Pyridinyl-4-[[3-[[5-(trifluoromethyl)-2-pyridinyl]oxy]phenyl]methyl]-1-piperidinecarboxamide], the “effect … in PG-NNOP” value with PG-NNOP neural organoids was “effective in correcting the gene expression that was altered in PG-NNOP”. Also, in the data set with PG-NNOP neural organoids (setting [6]), the “Log2 Fold Change of CDKN1A gene expression” value is 0.77, the “Log2 Fold Change of EZH2 gene expression” value is listed as −0.5, the “Log2 Fold Change of ID2 gene expression” value is on record as 0.35 and the “Log2 Fold Change of IDI1 gene expression” value is 1.15. For the same molecule, in the data set on PG-NNOP neural organoids (setting [6]), the “Log2 Fold Change of LMNB2 gene expression” value is on record as −0.67, the “Log2 Fold Change of MT2A gene expression” value amounted to 2.77, the “Log2 Fold Change of SLC35F1 gene expression” value is on record as −0.65 and the “Log2 Fold Change of SLC38A1 gene expression” value is −0.57. In addition, the “Log2 Fold Change of USP31 gene expression” value with PG-NNOP neural organoids (setting [6]) turned out to be 0.62.
As for `CCNC(=O)[C@H]1O[C@@H](n2cnc3c(N)nc(NCCc4ccc(CCC(=O)O)cc4)nc32)[C@H](O)[C@@H]1O` [CGS-21680, 2-p-(2-Carboxyethyl) phenethylamino-5′-N-ethylcarboxamidoadenosine hydrochloride hydrate], in data set [3], the “effect on dysregulation of SLC7A5 and MT2A” value is reported as “the dysregulation was corrected”. Further, the “effect on gene expression dysregulated in both AD-ApoE-NNOP and PG-NNOP” value in data set [3] (1 micromolar) was “significantly altered gene expression”. Also, in data set [3] (direction towards normalcy), the “effect on changes in expression of SELENBP1 and RARB in AD-ApoE-NNOP” value is “reduced the changes in expression of both genes”. In addition, the “soluble in 45% (w/v) aq 2-hydroxypropyl-β-cyclodextrin” value in data set [2] (45% (w/v) aq 2-hydroxypropyl-β-cyclodextrin) was at most 20 mg/mL. Also, in data set [2] (DMSO), the “soluble in DMSO” value is listed as “up to 3.4 mg/mL”.
